Experimental data published in patent US20220142948A1, “COMPOSITIONS AND METHODS FOR MODULATING METABOLIC REGULATORS OF T CELL PATHOGENICITY” (The Broad Institute, Inc., priority 2019, published 2022).
Entries after “also recorded” stand apart in the source; their conditions may differ.

System: Th17n, Th17p and iTreg cells
Assay: Population ATAC-seq chromatin accessibility
Assay type: cell-based, mouse
Excerpt: ATAC-seq. For population ATAC-seq, in vitro differentiated T-cells were sorted for live cells and froze down in Bambanker freezing media (Thermo Fisher Scientific).
Alignment of ATAC-Seq and Peak Calling. All ATAC-Seq reads were trimmed using Trimmomatic to remove primer and low-quality bases. Reads <36 bp were dropped. Reads were then passed to FastQC [www.bioinformatics.babraham.ac.uk/projects/fastqc/] to check the quality of the trimmed reads. The paired-end reads were then aligned to the mm10 reference genome using bowtie2 [29], allowing maximum insert sizes of 2000 bp, with the “—no-mixed” and “—no-discordant” parameters added. Reads with a mapping quality (MAPA) below 30 were removed. Duplicates were removed with PicardTools, and the reads mapping to the blacklist regions and mitochondrial DNA were also removed. Reads mapping to the positive strand were moved +4 bp, and reads mapping to the negative strand were moved −5 bp following the procedure outlined in [30] to account for the binding of the Tn5 transposase.
(§1) Peaks were called using macs2 on the aligned fragments with a qvalue cutoff of 0.001 and overlapping peaks among replicates were merged.
Tests of Differential Accessibility in ChARs. Differential accessibility was assessed using DESeq2 [32] on with a matrix of peaks by samples replacing the genes by samples matrix. Counts of Tn5 cuts were used instead of gene expression values.
ATAC-seq. For population ATAC-seq, in vitro differentiated T-cells were sorted for live cells and stored in Bambanker freezing media (Thermo Fisher Scientific) at −80° C. until further processing. Prior to library preparation, cells were thawed at 37° C. and washed with PBS. For ATAC-seq, cell pellets were lysed and tagmented in 1×TD Buffer, 0.2 ul TDE1 (Illumina), 0.01% digitonin, and 0.3×PBS in 40 ul reaction volume following the protocol described in [49]. Transposition reactions were incubated at 37° C. for 30 min at 300 rpm. The DNA was purified from the reaction using a MinElute PCR purification kit (QIAGEN). The whole resulting product was then PCR-amplified using indexed primers with NEBNext High-Fidelity 2X PCR Master Mix (NEB). First, Applicants performed 5 cycles of pre-amplification. Applicants sampled 10% of the pre-amplification reaction for SYBR Green quantitative PCR to assess the number of additional cycles needed for final amplification. After purifying the final library with the MinElute PCR purification kit (QIAGEN), the library was quantified for sequencing using qPCR and a Qubit dsDNA HS Assay kit (Invitrogen). Libraries were sequenced on an Illumina NextSeq 550 system with paired-end reads of 37 base pairs in length.
Alignment of ATAC-Seq and Peak Calling. All ATAC-Seq reads were trimmed using Trimmomatic to remove primer and low-quality bases. Reads <36 bp were dropped. Reads were then passed to FastQC [www.bioinformatics.babraham.ac.uk/projects/fastqc/] to check the quality of the trimmed reads. The paired-end reads were then aligned to the mm10 reference genome using bowtie2 [51], allowing maximum insert sizes of 2000 bp, with the “—no-mixed” and “—no-discordant” parameters added. Reads with a mapping quality (MAPA) below 30 were removed. Duplicates were removed with PicardTools, and the reads mapping to the blacklist regions and mitochondrial DNA were also removed. Reads mapping to the positive strand were moved +4 bp, and reads mapping to the negative strand were moved −5 bp following the procedure outlined in [52] to account for the binding of the Tn5 transposase.
as §1
Tests of Differential Accessibility. Differential accessibility was assessed using DESeq2 [54] on with a matrix of peaks (merging all samples) by samples. […]

## NCCC[C@](N)(C(=O)O)C(F)F [DFMO, 2-(difluoromethyl)ornithine]
  ATACseq peaks in the Il23r region: no significant difference
  accessibility in Th17 specific regions: specifically reduced accessibility; also recorded: reduces accessibility; also recorded: more restricted landscape; also recorded: less accessibility
  accessibility in Treg specific regions: more accessible landscape; also recorded: more accessibility
  peaks near regulatory elements for Foxp3 such as CNS2: no differentially expressed peaks
Rorgt binding site
  peaks in the promoter and intergenic regions of Il17a-Il17f: significantly restricted peaks
Th17n cells
  accessibility near potential binding sites of JMJD3 and POU-domain TFs: increased accessibility
Th cells analyzed
  accessible peaks overall: alters chromatin accessibility; also recorded: significant changes in accessible peaks; also recorded: considerable changes in accessible peaks
Both Th17n and Th17p cells
  motif enrichment in iTreg-specific accessible regions: significant enrichment of BATF and cMAF motifs
